# According to patent US5798093A (priority 1997, dated 1998):
# Legend:
# [1] = test system: Compound 48/80-induced scratching; test: Anti-pruritic activity, mouse scratch model (Compound 48/80-induced scratching); assay type: in vivo, mouse (male Swiss albino); settings: s.c.; for Mean % Inhibition of Scratching: Compound 48/80 challenge, 30 min; for antagonism of Compound 48/80-induced scratching (in words): dose-related
# Description: Testing was performed in a mouse scratch model under blind conditions.
# Groups of 8-10 male Swiss albino mice (Hilltop Lab Animals, Inc., Scottsdale, Pa.), weighing […], were used in the testing. They were housed under controlled temperature of 23-25° C. Food and water were freely available. Before the experiments, the mice were weighed, put into individual boxes and allowed to acclimate for 30 min.
# Vehicle used to dissolve the test compounds: 20% w/w cremophor EL.
# […] of the vehicle (3-5 doses, n-8-10) was injected s.c. into the back of the neck of mice 20 min. before challenging them with 100 μl of Compound 48/80 (2 mg/ml; 50 μg) injected s.c. into the back of the neck.
# To each mouse of a group of 8-10 mice previously subjected to the standard challenge various doses of the compounds, to be tested for anti-pruritic activity, were administered s.c. into the back of the neck.
# For each group of 8-10 mice, the mean values for scratching were normalized to relative % antagonism of scratching and then plotted vs. dose of test compounds. Interval estimates of mean A50 were determined by nonlinear regression analysis (Kalcida Graph) and mean % inhibition of scratching was calculated.
# [2] = test system: warm water induced tail withdrawal reflex / castor oil diarrhea; settings: po
# Description: Peripheral selectivity is defined by the ratio of the ED50 in the tail-withdrawal assay over the ED50 in the anti-diarrheal assay.
# Measure of Centrally-Mediated Opiod Analgesia by the Tail-Withdrawal Assay (Janssen, P. A. J.; Niemegeers, C. J. E.; Dony, J. G. H., The Inhibitory effect of Fentanyl and other morphine-like analgesics on the warm water induced tail withdrawal reflex in rats. Arzneimittel-Forschung 1963, 13, 502-507.)
# Young female Wistar rats (170-210 g body weight) are used only once. […] Around 8:30 AM the "normal" reaction time of each rat is determined by immersing the lower 5 cm portion of the tail in a cup freshly filled with water from a large constant temperature (55° C.) bath until the typical tail withdrawal response is observed. […] The reaction time is measured in 0.5 second units with a stopwatch. […] Periodically thereafter (i.e., 1/4, 1/2, 1, 2, 3, 4, 5 and 6 hours after dosage) the reaction time is again measured by trained technicians unaware of the nature of the compounds. Results of these studies are expressed as ED50 concentration values (mg/kg), calculated as the dose producing a tail withdrawal latency equal to half the difference between the maximum latency (≤15 seconds) and the baseline latency (6 to 8 seconds). […]
# [3] = reported; antidiarrheal use; cited from earlier work
# itch = settings: cited from earlier work
molecule,measurement,setting,value
"O=C(N1CCCCC1)C(CCN1CCC(O)(c2ccccc2)CC1)(c1ccccc1)c1ccccc1 [Compound 1, 1-[4-(4-Hydroxy-4-phenyl-1-piperidino)-2,2-diphenylbutyryl]piperidine]",Mean % Inhibition of Scratching,[1]; 2.5 mg/kg,32%
same,Mean % Inhibition of Scratching,[1]; 5.0 mg/kg,65%
same,Mean % Inhibition of Scratching,[1]; 10.0 mg/kg,83%
same,antagonism of Compound 48/80-induced scratching (in words),[1],antagonized Compound 48/80-induced scratching in a dose-related manner
O=C(N1CCCC1)C(CCN1CCC(O)(c2ccc(Cl)c(Cl)c2)CC1)(c1ccccc1)c1ccccc1 [Compound 4],Peripheral Selectivity (ED50tw /ED50 Castor Oil),[2],> 640
"CN(C)C(=O)C(CCN1CCC(O)(c2ccc(Br)cc2)CC1)(c1ccccc1)c1ccccc1 [Compound 3, 4-(p-Bromophenyl)-4-hydroxy-N,N-dimethyl-α,α-diphenyl-1-piperidinebutyramide]",antagonism of Compound 48/80-induced scratching (in words),[1],antagonized Compound 48/80-induced scratching in a dose-related manner
"CN(C)C(=O)C(CCN1CCC(O)(c2ccc(Cl)cc2)CC1)(c1ccccc1)c1ccccc1 [Compound 6, 4-(p-Chlorophenyl)-4-hydroxy-N,N-dimethyl-α,α-diphenyl-1-piperidinebutyramide]",antagonism of Compound 48/80-induced scratching (in words),[1],antagonized Compound 48/80-induced scratching in a dose-related manner
same,CNS effects (in words),[3],devoid of CNS effects
CN1CC[C@]23c4c5ccc(O)c4O[C@H]2[C@@H](O)C=C[C@H]3[C@H]1C5 [morphine],"generalized itching, incidence",itch; i.v.,about 1 % of patients
NCCc1c[nH]cn1 [histamine],induction of itch (in words),itch; humans / application to skin,produces itch but not pain
cyclosporin A,inhibition of itch in atopic dermatitis (in words),itch; atopic dermatitis,"itch is not inhibited by antihistamines, but by cyclosporin A"
"CN(C)C(=O)C(CCN1CCC(O)(c2ccc(Cl)cc2)CC1)(c1ccccc1)c1ccccc1.Cl [Example 2, 4-(p-Chlorophenyl)-4-hydroxy-N,N-dimethyl-α,α-diphenylpiperidine-1-butyramide hydrochloride]",CNS effects (in words),[3],completely free of the undesirable CNS effects
